Test results as given in ChEMBL document CHEMBL6120969, “Distinctive Immune Signatures Driven by Structural Alterations in Desmuramylpeptide NOD2 Agonists” (J Med Chem, 2024).
Active and inactive are the calls of the source. No cut-off for these calls is given here.

Columns and labels:
PBMC [1] = assay: Immunomodulatory activity in human PBMC cells assessed as increase in IL-17A level at 2 uM incubated for 18 hrs y flow cytometry analysis; assay type: functional, cell-based
Outline: (§1)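 Human donor PBMCs (Ficoll-Paque; 1 × 10^6 cells/mL, 500 μL, 48-well plates) were treated with compounds at 2 μM or 0.1% DMSO vehicle without LPS for 18 h at 37 °C, 5% CO2. Cytokines in cell-free supernatants were quantified with the LEGENDplex Human Essential Immune Response Panel on a flow cytometer against kit recombinant standard curves. Four independent replicates; two-way ANOVA with Tukey's test.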

PBMC [2] = assay: Immunomodulatory activity in human PBMC cells assessed as increase in TNF-alpha level at 2 uM incubated for 18 hrs y flow cytometry analysis; assay type: functional, cell-based; outline: as §1
BMDC [3] = assay: Adjuvant activity in OVA-immunized C57BL/6J mouse BMDC cells co-cultured with mouse CD4+ T cells assessed as increase in IL-4 production at 10 uM incubated for 18 hrs by flow cytometry analysis; assay type: functional, cell-based
PBMC [4] = assay: Immunomodulatory activity in human PBMC cells assessed as increase in LPS-induced IFN-gamma level at 2 uM incubated for 18 hrs y flow cytometry analysis; assay type: functional, cell-based
PBMC [5] = assay: Immunomodulatory activity in human PBMC cells assessed as increase in TGF-beta1 level at 2 uM incubated for 18 hrs y flow cytometry analysis; assay type: functional, cell-based; outline: as §1
PBMC [6] = assay: Immunomodulatory activity in human PBMC cells assessed as increase in LPS-induced IL-12p70 level at 2 uM incubated for 18 hrs y flow cytometry analysis; assay type: functional, cell-based
PBMC [7] = assay: Immunomodulatory activity in human PBMC cells assessed as increase in LPS-induced TNF-alpha level at 2 uM incubated for 18 hrs y flow cytometry analysis; assay type: functional, cell-based
PBMC [8] = assay: Immunomodulatory activity in human PBMC cells assessed as increase in IL-4 level at 2 uM incubated for 18 hrs y flow cytometry analysis; assay type: functional, cell-based; outline: as §1
PBMC [9] = assay: Immunomodulatory activity in human PBMC cells assessed as increase in IP-10 level at 2 uM incubated for 18 hrs y flow cytometry analysis; assay type: functional, cell-based; outline: as §1
PBMC [10] = assay: Immunomodulatory activity in human PBMC cells assessed as increase in IL-12p70 level at 2 uM incubated for 18 hrs y flow cytometry analysis; assay type: functional, cell-based; outline: as §1
PBMC [11] = assay: Immunomodulatory activity in human PBMC cells assessed as increase in IL-1beta level at 2 uM incubated for 18 hrs y flow cytometry analysis; assay type: functional, cell-based; outline: as §1
PBMC [12] = assay: Immunomodulatory activity in human PBMC cells assessed as increase in LPS-induced IL-10 level at 2 uM incubated for 18 hrs y flow cytometry analysis; assay type: functional, cell-based
Outline: (§2)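 Peripheral blood mononuclear cells from human donors were isolated with Ficoll-Paque and plated in 48-well plates at 1 × 10^6 cells/mL, 500 μL per well. Cells received compounds at 2 μM or 0.1% DMSO together with LPS (10 ng/mL) and were kept for 18 h at 37 °C, 5% CO2. Cytokine levels in cell-free supernatants were measured by flow cytometry with the LEGENDplex Human Essential Immune Response Panel, using the kit's recombinant standard curves. Data come from four independent replicates analysed by two-way ANOVA with Tukey's test.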

BMDC [13] = assay: Adjuvant activity in OVA-immunized C57BL/6J mouse BMDC cells co-cultured with mouse CD4+ T cells assessed as reduction in IFN-gamma production at 10 uM incubated for 18 hrs by flow cytometry analysis; assay type: functional, cell-based
BMDC [14] = assay: Adjuvant activity in OVA-immunized C57BL/6J mouse BMDC cells co-cultured with mouse CD4+ T cells assessed as increase in IL-9 level at 10 uM incubated for 18 hrs; assay type: functional, cell-based
PBMC [15] = assay: Immunomodulatory activity in human PBMC cells assessed as increase in LPS-induced IP-10 level at 2 uM incubated for 18 hrs y flow cytometry analysis; assay type: functional, cell-based; outline: as §2
PBMC [16] = assay: Immunomodulatory activity in human PBMC cells assessed as increase in IFN-gamma level at 2 uM incubated for 18 hrs y flow cytometry analysis; assay type: functional, cell-based; outline: as §1
PBMC [17] = assay: Immunomodulatory activity in human PBMC cells assessed as increase in LPS-induced IL-6 level at 2 uM incubated for 18 hrs y flow cytometry analysis; assay type: functional, cell-based; outline: as §2
PBMC [18] = assay: Cytotoxicity against human PBMC cells co-cultured with human K562 cells at 10 uM incubated for 4 hrs; assay type: functional, cell-based
Outline: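 Killing was scored as the share of K562 cells positive for both CFSE and Sytox blue. Human PBMCs were seeded in 96-well plates at 4 × 10^5 per well and pretreated for 18 h with compounds at 10 μM, with 0.1% DMSO as vehicle. CFSE-stained K562 cells were then added at 1 × 10^4 per well (effector:target 40:1) for 4 h at 37 °C, 5% CO2, before Sytox blue staining and reading on an Attune NxT flow cytometer. Assays ran in duplicate across three independent biological replicates and were analysed by one-way ANOVA with Dunnett's test.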

PBMC [19] = assay: Immunomodulatory activity in human PBMC cells assessed as increase in IL-10 level at 2 uM incubated for 18 hrs y flow cytometry analysis; assay type: functional, cell-based; outline: as §1
[20] = Cytotoxicity against human PBMC cells at 10 uM incubated for 4 hrs; assay type: toxicity, cell-based
Outline: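 Direct cytotoxicity was scored as the fraction of Sytox blue-positive cells among human PBMCs cultured without other cells. The PBMCs were exposed to compounds at 10 μM, with 0.1% DMSO as vehicle, alongside a K562 killing assay, then stained with Sytox blue dead cell stain and run on an Attune NxT flow cytometer, with analysis in FlowJo. Each condition was tested in duplicate across three independent biological replicates, and one-way ANOVA with Dunnett's test was applied.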

BMDC [21] = assay: Adjuvant activity in OVA-immunized C57BL/6J mouse BMDC cells co-cultured with mouse CD8+ T cells assessed as increase in IL-6 production at 10 uM incubated for 18 hrs by flow cytometry analysis; assay type: functional, cell-based
BMDC [22] = assay: Adjuvant activity in OVA-immunized C57BL/6J mouse BMDC cells assessed as increase in CD4+ T cell activation incubated for 18 hrs; assay type: functional, cell-based
Outline: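 Bone-marrow-derived dendritic cells from C57BL/6 mice (7 days with GM-CSF) were pretreated 18 h with compounds at 10 μM plus 50 μg/mL ovalbumin, washed, and combined (1 × 10^4/well) with 5 × 10^4 CFSE-labelled OT II CD4+ T cells for 72 h at 37 °C, 5% CO2. Activation of live Thy1.2+/CD4+ cells was read by flow cytometry as CFSE dilution and CD25 expression. Duplicates, two independent biological replicates; paired t tests.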

[23] = Cytotoxicity against human HEK-Blue hNOD2 cells assessed as metabolic activity at 10 uM incubated for 18 hes by MTT assay; assay type: toxicity, cell-based; details: hek-blue hnod2, 10 µM
PBMC [24] = assay: Immunomodulatory activity in human PBMC cells assessed as increase in IL-8 level at 2 uM incubated for 18 hrs y flow cytometry analysis; assay type: functional, cell-based; outline: as §1
[25] = Cytotoxicity against human PBMC cells at 10 uM incubated for 4 hrs in presence of MDP; assay type: toxicity, cell-based
PBMC [26] = assay: Immunomodulatory activity in human PBMC cells assessed as increase in IL-2 level at 2 uM incubated for 18 hrs y flow cytometry analysis; assay type: functional, cell-based; outline: as §1
PBMC [27] = assay: Immunomodulatory activity in human PBMC cells assessed as increase in IL-6 level at 2 uM incubated for 18 hrs y flow cytometry analysis; assay type: functional, cell-based; outline: as §1
BMDC [28] = assay: Adjuvant activity in OVA-immunized C57BL/6J mouse BMDC cells co-cultured with mouse CD4+ T cells assessed as increase in IL-2 level at 10 uM incubated for 18 hrs; assay type: functional, cell-based
BMDC [29] = assay: Adjuvant activity in OVA-immunized C57BL/6J mouse BMDC cells co-cultured with mouse CD8+ T cells assessed as reduction in IFN-gamma production at 10 uM incubated for 18 hrs by flow cytometry analysis; assay type: functional, cell-based
PBMC [30] = assay: Immunomodulatory activity in human PBMC cells assessed as increase in LPS-induced MCP-1 level at 2 uM incubated for 18 hrs y flow cytometry analysis; assay type: functional, cell-based; outline: as §2
PBMC [31] = assay: Immunomodulatory activity in human PBMC cells assessed as increase in MCP-1 level at 2 uM incubated for 18 hrs y flow cytometry analysis; assay type: functional, cell-based; outline: as §1
PBMC [32] = assay: Immunomodulatory activity in human PBMC cells assessed as increase in LPS-induced IL-1beta level at 2 uM incubated for 18 hrs y flow cytometry analysis; assay type: functional, cell-based

CCCC(=O)Oc1ccc(/C=C/C(=O)NCC(=O)N[C@H](C(=O)N[C@H](CCC(=O)OCC)C(=O)OCC)C(C)C)cc1OC
Activity (PBMC [1]): Active | Activity (PBMC [2]): Active | Activity (BMDC [3]): Active | Activity (PBMC [4]): Active | Activity (PBMC [5]): Active | Activity (PBMC [6]): Active | Activity (PBMC [7]): Active | Activity (PBMC [8]): Active | Activity (PBMC [9]): Active | Activity (PBMC [10]): Active | Activity (PBMC [11]): Active | Activity (PBMC [12]): Active | Activity (BMDC [13]): Active | Activity (BMDC [14]): Active | Activity (PBMC [15]): Active | Activity (PBMC [16]): Active | Activity (PBMC [17]): Active | Activity (PBMC [18]): inactive | Activity (PBMC [19]): Active | Activity [20]: Non-toxic | Activity (BMDC [21]): Active | Activity (BMDC [22]): Active | Activity [23]: Non-toxic | Activity (PBMC [24]): Active | Activity [25]: Non-toxic | Activity (PBMC [26]): Active | Activity (PBMC [27]): Active | Activity (BMDC [28]): Active | Activity (BMDC [29]): Active | Activity (PBMC [30]): Active | Activity (PBMC [31]): Active | Activity (PBMC [32]): Active

CC/C=C\C/C=C\C/C=C\C/C=C\C/C=C\CCCC(=O)Oc1ccc(/C=C/C(=O)NCC(=O)N[C@H](C(=O)N[C@H](CCC(=O)OCC)C(=O)OCC)C(C)C)cc1OC
Activity (PBMC [1]): Active | Activity (PBMC [2]): Active | Activity (BMDC [3]): Active | Activity (PBMC [4]): Active | Activity (PBMC [5]): Active | Activity (PBMC [6]): Active | Activity (PBMC [7]): Active | Activity (PBMC [8]): Active | Activity (PBMC [9]): Active | Activity (PBMC [10]): Active | Activity (PBMC [11]): Active | Activity (PBMC [12]): Active | Activity (BMDC [13]): Active | Activity (BMDC [14]): Active | Activity (PBMC [15]): Active | Activity (PBMC [16]): Active | Activity (PBMC [17]): Active | Activity (PBMC [18]): inactive | Activity (PBMC [19]): Active | Activity [20]: Non-toxic | Activity (BMDC [21]): Active | Activity (BMDC [22]): Active | Activity [23]: Non-toxic | Activity (PBMC [24]): Active | Activity [25]: Non-toxic | Activity (PBMC [26]): Active | Activity (PBMC [27]): Active | Activity (BMDC [28]): Active | Activity (BMDC [29]): Active | Activity (PBMC [30]): Active | Activity (PBMC [31]): Active | Activity (PBMC [32]): Active
